Test results: patent US9428477B2, “Trans-2-decenoic acid derivative and drug containing same” (NIPPON ZOKI PHARMACEUTICAL CO., LTD., priority 2012, dated 2016)

Tests used:
[1] = test system: rats with paclitaxel-induced peripheral nerve disorder; experiment: Rat peripheral nerve disorder induced by paclitaxel, von Frey test; type: in vivo; details: ip, test drug intraperitoneally, single dose, higher of values 1 and 5 hours after administration, mechanical stimulus of right hind limb, normal threshold 15, read-out: Recovery Rate of 50% Reaction Threshold Value
Experimental: The effects of the compounds of the present invention were evaluated for a peripheral nerve disorder which is a side effect induced by the administration of an anti-cancer agent paclitaxel, such as hyperesthesia including allodynia induced by mechanical stimuli, which is a severe pain induced by such tactile stimuli which usually cause no pains. The compound of the present invention was intraperitoneally administered to rats as a test drug to conduct a von Frey test.
Male SD rats of six weeks age (six rats per group) were used as experimental animals, and paclitaxel (2 mg/kg) was intraperitoneally administered every other day for four times in total to prepare rats with paclitaxel-induced peripheral nerve disorder. During the period of 18 to 25 days or during the period of 20 to 27 days after the initiation of paclitaxel administration, the test drug was intraperitoneally administered in a single dose of […], and the following von Frey test was conducted.
The rats of the above (1) were placed in a transparent acrylic cage with a wire-meshed floor and habituated for about three minutes, and the 50% reaction threshold values to the mechanical stimulus of right hind limb were measured before administration of the test drug and after 1 and 5 hours from the initiation of the administration.
The measurement was conducted using von Frey filaments (manufactured by North Coast Medical Inc.) in accordance with the methods of Chaplan, et al. (Journal of Neuroscience Methods, 53(1), 55-63, 1994) and Dixon, et al. (Annual Review of Pharmacology and Toxicology, 20, 441-462, 1980). […] The case where the rat escaped at the instance of removing the filament was also called positive. When the positive reaction was found, stimulus was applied similarly with a filament of one rank weaker, and in the absence of the reaction, stimulus was similarly applied with a filament of one rank stronger, and a point where the reaction changed from negative to positive or from positive to negative was called the first two reactions. Subsequently, stimuli were applied for continuously four times by the same up-down method. A 50% reaction threshold value to the mechanical stimulus was measured using the reaction to the six stimuli in total and then (mean value)±(standard error) for each group was calculated. Incidentally, when stimulus reached to a load of 15.0 g without positive reaction, or when positive reaction continued to a load of 0.4 g, 15.0 g or 0.25 g was adopted as each of 50% reaction threshold values. With regard to the higher 50% reaction threshold value between the 50% threshold values after 1 hour and 5 hours from administration of a test drug, a recovery rate (%) of the 50% reaction threshold value was calculated by the following expression in which 15 was taken as a normal threshold value.
Recovery rate (%) of 50% reaction threshold value=[(50% reaction threshold value after 1 hour or 5 hours from administration of test drug)−(50% reaction threshold value before administration of test drug)]/[(Normal threshold value)−(50% reaction threshold value before administration of test drug)]×100

[2] = test system: chronic mild stress-induced depression model mice; experiment: Light-dark test, suppressive effects of anxiety symptoms accompanying mild stress loads; type: in vivo; details: normal control 110.74±5.29, stress-loaded control 74.72±4.09
Experimental: (§1) Female ddY mice of seven weeks age (n=8 to 12) were subjected to the following procedures: (A) The mice were subjected to forced swimming for 15 minutes, and then to normal breeding for two days. (B) The mice were subjected to breeding in an inclined cage for two days, and then to normal breeding for one day. (C) The mice were subjected to breeding for one day in a cage of which floor mat was made wet and then to normal breeding for one day. (D) The mice were subjected to breeding for one day with a cage rotating at a rate of 180 rotations/minute, and then to normal breeding for one day. Further, after one cycle of (A) to (D) was carried out, (B) to (D) were repeated for two cycles. […]
The compounds of the present invention were administered as a test drug to the chronic mild stress-induced depression model mice of Test Example 3(1) mentioned above, and the model mice were then subjected to light-dark test to evaluate suppressive effects of anxiety symptoms. Specifically, a wooden rectangular apparatus composed of a light chamber and a dark chamber having a height of 50 cm, a length of 50 cm, a width of 25 cm was used, a mouse was placed in a dark chamber and allowed to freely search, and then the number of times invading into a light chamber, and the time staying in the light chamber were recorded for 5 minutes. […]

[3] = test system: chronic mild stress-induced depression model mice; experiment: Tail suspension test, suppressive effects of depression symptoms accompanying mild stress loads; type: in vivo; details: normal control 73.16±9.20, stress-loaded control 157.01±11.97
Experimental: as §1, with “cycles. As such, stress was applied over three weeks in total to prepare chronic mild stress-induced depression model mice.” for “cycles.”
The compounds of the present invention were administered as a test drug to the chronic mild stress-induced depression model mice of Test Example 3(1) mentioned above, and the model mice were then subjected to tail suspension test to evaluate suppressive effects of depression symptoms. […] The observations were made for 6 minutes, and the length of the immobility time, serving as an index of depression symptoms, was measured. […]

[4] = test system: MAP kinase (ERK1/2); experiment: Activation (phosphorylation) of MAP kinase under mild stress loads, hippocampus of chronic mild stress-induced depression model mice; type: in vivo; details: normal control 1.26±0.11, stress-loaded control 0.56±0.04
Experimental: As to the compounds of the present invention, the activation level of the MAP kinase (ERK1/2) was measured using chronic mild stress-induced depression model mice in the following manner. • (1) Preparation of Chronic Mild Stress-Induced Depression Model Mice and Administration of Test Drug
as §1, with “cycles. As such, stress was applied over three weeks in total to prepare chronic mild stress-induced depression model mice.” for “cycles.”
Each of the MAP kinase (MAPK) and the phosphorylated MAP kinase (pMAPK) was subjected to immunoblot analysis, and 2 μg or 5 μg each of tissue-extracted proteins was subjected to electrophoresis. […] The staining intensity of each band was quantified, and a ratio of pMAPK to MAPK was obtained (n=4 to 7). […]

[5] = test system: transcription factor CREB; experiment: Activation (phosphorylation) of CREB under mild stress loads, chronic mild stress-induced depression model mice; type: in vivo; details: normal control 0.95±0.09, stress-loaded control 0.50±0.07
[6] = 1,000 μg/kg orally once every day for three weeks
[7] = 500 μg/kg orally once every day for three weeks

melting point [°C] | SMILES | change in vivo at 0.3 mg/kg [1] [%] | staying time in the light chamber ([2]; 5 minutes, 1,000 μg/kg) [s] | immobility time ([3]; 6 minutes, 1,000 μg/kg) [s] | ratio of pMAPK to MAPK [4, 6] | ratio of pCREB to CREB [5, 6] | staying time in the light chamber ([2]; 5 minutes, 500 μg/kg) [s] | immobility time ([3]; 6 minutes, 500 μg/kg) [s] | ratio of pMAPK to MAPK [4, 7] | ratio of pCREB to CREB [5, 7]
88 to 89 | CCCCCCC/C=C/C(=O)N1CCC(C(=O)O)CC1 [Compound 10, 1-((E)-2-Decenoyl)piperidine-4-carboxylic acid] | 44.6 | 107.05 ± 8.29 | 96.03 ± 25.24 | 1.00±0.04 | 0.94±0.10 |  |  |  | 
 | CCCCCCC/C=C/C(=O)N1CCC(N(C)C)CC1 [Compound 12, 1-((E)-2-decenoyl)-4-dimethylaminopiperidine] | 49.7 |  |  |  |  | 108.70 ± 12.06 | 69.26 ± 16.41 | 1.09±0.04 | 1.08±0.14
